How the values were obtained:
Caspase-1 (Mus musculus) = molecular target: T1, Caspase-1 (Mus musculus) (UniProt P29452); experiment: Inhibition of mouse recombinant ICE assessed as ratio of irreversible rate constant K3 to dissociation constant of the reversible binding step Ki pre-incubated for 60 mins with Acetyl-Tyr-Val-Ala-Asp-amino-4-methylcoumarin substrate followed by enzyme addition by fluorescence based assay
T1 sequence (whole entry): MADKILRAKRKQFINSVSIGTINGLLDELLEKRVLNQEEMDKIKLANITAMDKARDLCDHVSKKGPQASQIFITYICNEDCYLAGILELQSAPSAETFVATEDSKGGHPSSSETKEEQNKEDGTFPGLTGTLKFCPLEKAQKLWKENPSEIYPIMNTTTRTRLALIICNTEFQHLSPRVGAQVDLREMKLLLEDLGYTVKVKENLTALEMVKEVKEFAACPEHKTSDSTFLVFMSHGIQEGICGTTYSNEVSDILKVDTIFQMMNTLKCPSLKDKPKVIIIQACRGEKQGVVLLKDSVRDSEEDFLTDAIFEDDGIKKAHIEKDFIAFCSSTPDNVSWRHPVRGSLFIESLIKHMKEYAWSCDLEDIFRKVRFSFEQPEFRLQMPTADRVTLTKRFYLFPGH

Caspase-8 (Homo sapiens) = Caspase-8 (Homo sapiens) (UniProt Q14790); experiment: Inhibition of recombinant MCH5 (unknown origin) assessed as ratio of irreversible rate constant K3 to dissociation constant of the reversible binding step Ki pre-incubated for 60 mins with Acetyl-Tyr-Val-Ala-Asp-amino-4-methylcoumarin substrate followed by enzyme addition by fluorescence based assay
Caspase-3 (Homo sapiens) = molecular target: T2, Caspase-3 (Homo sapiens) (UniProt P42574); experiment: Inhibition of recombinant CPP32 (unknown origin) assessed as ratio of irreversible rate constant K3 to dissociation constant of the reversible binding step Ki pre-incubated for 60 mins with Acetyl-Tyr-Val-Ala-Asp-amino-4-methylcoumarin substrate followed by enzyme addition by fluorescence based assay
T2 sequence (whole entry): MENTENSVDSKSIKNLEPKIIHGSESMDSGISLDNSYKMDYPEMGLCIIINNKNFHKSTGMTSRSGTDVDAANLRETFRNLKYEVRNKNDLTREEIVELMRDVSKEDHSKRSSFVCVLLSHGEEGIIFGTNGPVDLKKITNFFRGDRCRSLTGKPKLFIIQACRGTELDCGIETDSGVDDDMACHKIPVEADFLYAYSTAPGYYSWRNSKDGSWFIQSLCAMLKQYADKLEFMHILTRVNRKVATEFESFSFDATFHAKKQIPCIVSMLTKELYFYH

Caspase-6 (Homo sapiens) = molecular target: T3, Caspase-6 (Homo sapiens) (UniProt P55212); experiment: Inhibition of recombinant MCH2 (unknown origin) assessed as ratio of irreversible rate constant K3 to dissociation constant of the reversible binding step Ki pre-incubated for 60 mins with Acetyl-Tyr-Val-Ala-Asp-amino-4-methylcoumarin substrate followed by enzyme addition by fluorescence based assay
T3 sequence (whole entry): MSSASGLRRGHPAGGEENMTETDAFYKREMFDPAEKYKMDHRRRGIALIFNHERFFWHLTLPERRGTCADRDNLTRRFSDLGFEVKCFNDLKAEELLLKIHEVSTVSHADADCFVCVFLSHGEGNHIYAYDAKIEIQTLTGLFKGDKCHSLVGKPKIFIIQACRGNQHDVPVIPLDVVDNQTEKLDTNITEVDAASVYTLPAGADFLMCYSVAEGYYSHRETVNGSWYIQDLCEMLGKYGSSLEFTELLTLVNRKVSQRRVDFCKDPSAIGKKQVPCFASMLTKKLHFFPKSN

Sequence of Caspase-8 (Homo sapiens) (Q14790 217-374 limits assumed): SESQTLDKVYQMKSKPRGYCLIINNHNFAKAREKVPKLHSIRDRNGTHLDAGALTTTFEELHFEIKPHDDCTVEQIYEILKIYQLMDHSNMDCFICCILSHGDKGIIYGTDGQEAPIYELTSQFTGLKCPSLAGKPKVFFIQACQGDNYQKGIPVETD
Sequence of Caspase-8 (Homo sapiens) (Q14790 385-479 limits assumed): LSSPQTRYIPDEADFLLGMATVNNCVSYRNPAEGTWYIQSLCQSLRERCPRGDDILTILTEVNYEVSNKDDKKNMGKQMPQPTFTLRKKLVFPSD

| Structure (SMILES) | Ratio (Caspase-1 (Mus musculus)) [M⁻¹ s⁻¹] | Ratio (Caspase-8 (Homo sapiens)) [M⁻¹ s⁻¹] | Ratio (Caspase-3 (Homo sapiens)) [M⁻¹ s⁻¹] | Ratio (Caspase-6 (Homo sapiens)) [M⁻¹ s⁻¹] |
| --- | --- | --- | --- | --- |
| C[C@H](NC(=O)C(=O)Nc1cc(C(F)(F)F)ccc1N1CCCC1)C(=O)N[C@@H](CC(=O)O)C(=O)COP(=O)(c1ccccc1)c1ccccc1 | 1.5e+06 | 933000 | 78600 | 202000 |
| C[C@H](NC(=O)C(=O)Nc1ccccc1F)C(=O)N[C@@H](CC(=O)O)C(=O)COC(=O)c1c(Cl)cccc1Cl | 172000 | 155000 | 68900 | 129000 |
| CC(C)[C@H](NC(=O)C(=O)NC12CC3CC(CC(C3)C1)C2)C(=O)N[C@@H](CC(=O)O)C(=O)COc1c(F)c(F)cc(F)c1F | 184000 | 59900 | 6330 | 10700 |
| C[C@H](NC(=O)C(=O)NC12CC3CC(CC(C3)C1)C2)C(=O)N[C@@H](CC(=O)O)C(=O)COC(=O)c1c(Cl)cccc1Cl | 46000 to 126000 | 18700 to 92600 | 20500 to 165000 | 21100 to 143000 |
| C[C@H](NC(=O)C(=O)NCc1cccc2ccccc12)C(=O)N[C@@H](CC(=O)O)C(=O)COc1c(F)c(F)cc(F)c1F | 2.59e+06 | 1.26e+06 | 158000 | 335000 |
| C[C@H](NC(=O)C(=O)Nc1ccccc1C(C)(C)C)C(=O)N[C@@H](CC(=O)O)C(=O)COC(=O)c1c(Cl)cccc1Cl | 43300 to 537000 | 30200 to 39100 | 62900 to 142000 | 6960 to 191000 |
| CC(C)[C@H](NC(=O)C(=O)Nc1cccc2ccccc12)C(=O)N[C@@H](CC(=O)O)C(=O)COc1c(-c2ccccc2)oc2ccccc2c1=O | 82100 | 0 | 43600 | 0 |
| CC(C)[C@H](NC(=O)C(=O)Nc1ccccc1Cc1ccccc1)C(=O)N[C@@H](CC(=O)O)C(=O)COc1c(F)c(F)cc(F)c1F | 344000 | 105000 | 54800 | 25300 |
| CCCCCCCc1ccc(NC(=O)C(=O)N[C@H](C(=O)N[C@@H](CC(=O)O)C(=O)COc2c(F)c(F)cc(F)c2F)C(C)C)cc1 | 657000 | 155000 | 11200 | 50000 |
| C[C@H](NC(=O)C(=O)Nc1ccccc1-c1ccccc1)C(=O)N[C@@H](CC(=O)O)C(=O)COP(=O)(c1ccccc1)c1ccccc1 | 345000 | 207000 | 243000 | 317000 |
| CC(C)[C@H](NC(=O)C(=O)Nc1cccc2ccccc12)C(=O)N[C@@H](CC(=O)O)C(=O)COc1ccc(O)cc1 | 1.84e+06 | 625000 | 286000 | 69100 |
| C[C@H](NC(=O)C(=O)Nc1ccc(F)cc1)C(=O)N[C@@H](CC(=O)O)C(=O)COP(=O)(c1ccccc1)c1ccccc1 | 956000 | 2.3e+06 | 268000 | 424000 |
| CC(C)[C@H](NC(=O)C(=O)Nc1ccccc1C(C)(C)C)C(=O)N[C@@H](CC(=O)O)C(=O)COc1c(F)c(F)cc(F)c1F | 2.05e+06 | 1.16e+06 | 27700 | 112000 |
| C[C@H](NC(=O)C(=O)Nc1ccccc1I)C(=O)N[C@@H](CC(=O)O)C(=O)COC(=O)c1c(Cl)cccc1Cl | 90100 to 1.27e+06 | 337000 to 551000 | 67600 to 942000 | 28200 to 360000 |
| C[C@H](NC(=O)C(=O)Nc1cccc2c1CCCC2)C(=O)N[C@@H](CC(=O)O)C(=O)COC(=O)c1c(Cl)cccc1Cl | 16900 to 1.76e+07 | 21200 to 1.92e+06 | 149000 to 260000 | 126000 to 264000 |
| COc1ccccc1NC(=O)C(=O)N[C@H](C(=O)N[C@@H](CC(=O)O)C(=O)COc1c(F)c(F)cc(F)c1F)C(C)C | 2.07e+06 | 2.68e+06 | 10800 | 61500 |
| CC(C)[C@H](NC(=O)C(=O)Nc1ccccc1-c1ccccc1)C(=O)N[C@@H](CC(=O)O)C(=O)COc1c(F)c(F)cc(F)c1F | 127000 | 65300 | 25400 | 31700 |
| C[C@H](NC(=O)C(=O)Nc1ccccc1-c1ccccc1)C(=O)N[C@@H](CC(=O)O)C(=O)COc1ccccc1F | 167000 | 37800 | 55600 | 35000 |
| C[C@H](NC(=O)C(=O)Nc1ccccc1Cl)C(=O)N[C@@H](CC(=O)O)C(=O)COP(=O)(c1ccccc1)c1ccccc1 | 103000 to 1.98e+06 | 179000 to 2.33e+06 | 162000 to 564000 | 247000 to 373000 |
| CC(C)[C@H](NC(=O)C(=O)NC(c1ccccc1)c1ccccc1)C(=O)N[C@@H](CC(=O)O)C(=O)COc1c(F)c(F)cc(F)c1F | 201000 | 48600 | 5380 | 1430 |
| CC(C)[C@H](NC(=O)C(=O)NCc1ccccc1)C(=O)N[C@@H](CC(=O)O)C(=O)COc1c(F)c(F)cc(F)c1F | 1.8e+06 | 472000 | 21000 | 16600 |
| C[C@H](NC(=O)C(=O)Nc1ccccc1I)C(=O)N[C@@H](CC(=O)O)C(=O)COP(=O)(c1ccccc1)c1ccccc1 | 36300 | 46300 | 78300 | 66200 |
| C[C@H](NC(=O)C(=O)Nc1cc(C(C)(C)C)ccc1C(C)(C)C)C(=O)N[C@@H](CC(=O)O)C(=O)COP(=O)(c1ccccc1)c1ccccc1 | 211000 | 1.34e+06 | 104000 | 308000 |
| C[C@H](NC(=O)C(=O)Nc1cccc2c1CCCC2)C(=O)N[C@@H](CC(=O)O)C(=O)COc1c(F)c(F)cc(F)c1F | 22000 | 46200 | 118000 | 64100 |
| CC(C)[C@H](NC(=O)C(=O)Nc1cc(C(C)(C)C)ccc1C(C)(C)C)C(=O)N[C@@H](CC(=O)O)C(=O)COc1c(F)c(F)cc(F)c1F | 767000 | 51300 | 70600 | 8230 |
| C[C@H](NC(=O)C(=O)Nc1ccccc1Cc1ccccc1)C(=O)N[C@@H](CC(=O)O)C(=O)COc1c(F)c(F)cc(F)c1F | 323000 | 154000 | 3430 | 5850 |
| CC(C)[C@H](NC(=O)C(=O)Nc1cnccn1)C(=O)N[C@@H](CC(=O)O)C(=O)COc1c(F)c(F)cc(F)c1F | 2.57e+06 | 1.83e+06 | – | 175000 |
| CC(C)[C@H](NC(=O)C(=O)Nc1cccc2ccccc12)C(=O)N[C@@H](CC(=O)O)C(=O)COc1c(F)cc(F)cc1F | 879000 | – | – | 37400 |
| CC(C)[C@H](NC(=O)C(=O)Nc1cccc2ccccc12)C(=O)N[C@@H](CC(=O)O)C(=O)COC(=O)c1c(Cl)cccc1Cl | 1.05e+06 | – | – | 234000 |

Source: ChEMBL document CHEMBL3880422, “C-terminal modified oxamyl dipeptides as inhibitors of the ICE/ced-3 family of cysteine proteases” (2007)
